According to patent US9644175B2, “Antimicrobial amino-salicylic acid derivatives” (BASF SE, priority 2009, dated 2017):

Key:
Format in all cases: cell-based
[1] = test system: Pseudomonas aeruginosa ATCC15442; test: Suspension test, bactericidal activity (modified EN 1040); conditions: room temperature, start about 10^7 cfu/ml
Experimental: (§1) The following examples illustrate the invention. Unless indicated otherwise, percentages refer to percent by weight (b.w.), room temperature denotes a temperature from the range 20-24° C. The determination of bactericidal activity and fungicidal activity in surfactants or shampoo formulations of the present invention is measured in a suspension test according to trivial modifications of the European Standard methods EN 1040 and EN 1275, respectively. The bactericidal activity of the compounds of the present invention is measured in a suspension test (trivial modification of the European Standard method EN 1040). Substances listed in Table 1 are tested against gram positive and gram negative bacteria. The compound of the invention is dissolved in ethanol resulting in a 1% b.w. stock solution. The cell densities of the bacterial suspensions used as inoculums for the suspension test are as follows (cfu=colony forming units): [table] For the suspension tests, an appropriate concentration of the test compound is mixed with a bacterial suspension resulting in a final cell count in the mixture of about 10^7 cfu/ml. These test mixtures are incubated at room temperature (22° C.+/−2° C.) and aliquots of 1 ml test mixture containing the test bacteria are taken after set contact times for determination of the residual cell count of test bacteria. For inactivation of the antimicrobial compounds, the 1 ml aliquots are diluted in 1:10 steps with an aqueous solution containing 10% of Tween 80 (a polyethoxylated sorbitan ester surfactant), 3% lecithin, 0.1% histidine and 0.5% sodium thiosulfate.

[2] = test system: Staphylococcus aureus ATCC 6538; test: as above; conditions: room temperature, start about 10^7 cfu/ml
Experimental: as §1

[3] = test system: Escherichia coli ATCC 10536; test: as above; conditions: room temperature, start about 10^7 cfu/ml
Experimental: as §1

[4] = test system: Aspergillus niger ATCC 6275; test: Suspension test of compound in surfactants and shampoo; conditions: 7 days, start 10^5 cfu/ml
Experimental: (§2) The following examples illustrate the invention. Unless indicated otherwise, percentages refer to percent by weight (b.w.), room temperature denotes a temperature from the range 20-24° C. The determination of bactericidal activity and fungicidal activity in surfactants or shampoo formulations of the present invention is measured in a suspension test according to trivial modifications of the European Standard methods EN 1040 and EN 1275, respectively. The fungicidal activity of the compounds of the present invention is measured in a suspension test (trivial modification of the European Standard method EN 1275). The compound of the invention is incorporated in an anionic surfactant, for example sodium laureth sulphate (Epicol ESB 70), or a non-ionic surfactant such as decyl glucoside (Plantacare 2000UP), or an amphoteric surfactant, for example cocamidopropyl betaine (Tego Betain F50). Each of the surfactants is tested at 10% a.i. Furthermore, the 5-amino-salicylic acid derivatives of the invention are incorporated in a typical shampoo formulation with the following composition: • 0.01 to 5% by weight of 5 amino-salicylic acid derivative, • 7.0% by weight sodium laureth-2-sulfate, • 2.5% by weight decyl glucoside • 4.0% by weight cocamidopropyl betaine, • 1.0% by weight NaCl and • water ad 100%. • pH 6 is adjusted with NaOH. The surfactant solutions and shampoo formulations tested contain 1% b.w. of the compound of the invention. The cell densities of the bacterial suspensions used as inoculums for the suspension tests are as follows (cfu=colony forming units): [table] The cell density in the test is adjusted to 10^5 cfu/ml. These test mixtures are incubated at room temperature (22° C.+/−2° C.) and aliquots of 1 ml test mixture are taken after set contact times for determination of the residual cell count. For inactivation of the antimicrobial compounds, the 1 ml aliquots are diluted in 1:10 steps with an aqueous solution containing 10% Tween 80 (a polyethoxylated sorbitan ester surfactant), 3% lecithin, 0.1% histidine and 0.5% sodium thiosulfate.

[5] = test system: Candida albicans AJCC 10231; test: as above; conditions: 24 h, start 10^5 cfu/ml
Experimental: as §2

[6] = test system: Candida albicans ATCC 10231; test: Suspension test, fungicidal activity (modified EN 1275), Table A; conditions: contact time 24 h
Experimental: The following examples illustrate the invention. Unless indicated otherwise, percentages refer to percent by weight (b.w.), room temperature denotes a temperature from the range 20-24° C. The determination of bactericidal activity and fungicidal activity in surfactants or shampoo formulations of the present invention is measured in a suspension test according to trivial modifications of the European Standard methods EN 1040 and EN 1275, respectively. For the suspension tests, an appropriate concentration of the test compound is mixed with a bacterial suspension resulting in a final cell count in the mixture of about 10^7 cfu/ml. These test mixtures are incubated at room temperature (22° C.+/−2° C.) and aliquots of 1 ml test mixture containing the test bacteria are taken after set contact times for determination of the residual cell count of test bacteria. For inactivation of the antimicrobial compounds, the 1 ml aliquots are diluted in 1:10 steps with an aqueous solution containing 10% of Tween 80 (a polyethoxylated sorbitan ester surfactant), 3% lecithin, 0.1% histidine and 0.5% sodium thiosulfate. The fungicidal activity of the compounds of the present invention is measured in a suspension test (trivial modification of the European Standard method EN 1275). The compound of the invention is dissolved in ethanol resulting in a 1% b.w. solution of the compound. […]

[7] = test system: Pseudomonas aeruginosa ATCC 15442; test: Suspension test of compound in surfactants and shampoo; conditions: 24 h, start 10^5 cfu/ml
Experimental: as §2, with “respectively.” for “respectively. The fungicidal activity of the compounds of the present invention is measured in a suspension test (trivial modification of the European Standard method EN 1275).”

[8] = test system: Staphylococcus aureus ATCC 6538; test: as above; conditions: 24 h, start 10^5 cfu/ml
Experimental: as §2, with “respectively.” for “respectively. The fungicidal activity of the compounds of the present invention is measured in a suspension test (trivial modification of the European Standard method EN 1275).”

[9] = test system: Escherichia coli ATCC 10536; test: as above; conditions: 24 h, start 10^5 cfu/ml
Experimental: as §2, with “respectively.” for “respectively. The fungicidal activity of the compounds of the present invention is measured in a suspension test (trivial modification of the European Standard method EN 1275).”

[10] = 1% b.w. compound in amphoteric surfactant (cocamidopropyl betaine, 10% a.i.)
[11] = 1% b.w. compound in anionic surfactant (sodium laureth sulfate, 10% a.i.)
[12] = 1% b.w. compound in non-ionic surfactant (decyl glucoside, 10% a.i.)
[13] = 1% b.w. compound in shampoo formulation, pH 6

CCCCCC(=O)Nc1ccc(O)c(C(=O)O)c1 [compound 596, 5-hexanoylamino-salicylic acid]
log reduction ([1]; contact time 30 min): >5 log | residual cell count ([1]; contact time 30 min): <100 cfu/ml | log reduction ([2]; contact time 30 min): >5 log | residual cell count ([2]; contact time 30 min): <100 cfu/ml | log reduction ([3]; contact time 30 min): >5 log | residual cell count ([3]; contact time 30 min): <100 cfu/ml | log reduction [4, 10]: 2.3 log | residual cell count [4, 10]: 1.2 × 10^3 cfu/ml | log reduction [4, 11]: 2.1 log | residual cell count [4, 11]: 1.7 × 10^3 cfu/ml | log reduction [4, 12]: 1.1 log | residual cell count [4, 12]: 1.9 × 10^4 cfu/ml | log reduction [5, 10]: >3 log | residual cell count [5, 10]: <100 cfu/ml | log reduction [5, 11]: 1.2 log | residual cell count [5, 11]: 1.4 × 10^4 cfu/ml | log reduction [5, 12]: >3 log | residual cell count [5, 12]: <100 cfu/ml | log reduction [6]: >4 log | residual cell count [6]: <100 cfu/ml | log reduction [7, 10]: >3 log | residual cell count [7, 10]: <100 cfu/ml | log reduction [7, 11]: >3 log | residual cell count [7, 11]: <100 cfu/ml | log reduction [7, 12]: >3 log | residual cell count [7, 12]: <100 cfu/ml | log reduction [8, 10]: >3 log | residual cell count [8, 10]: <100 cfu/ml | log reduction [8, 11]: >3 log | residual cell count [8, 11]: <100 cfu/ml | log reduction [8, 12]: >3 log | residual cell count [8, 12]: <100 cfu/ml | log reduction [8, 13]: >3 log | residual cell count [8, 13]: <100 cfu/ml | log reduction [9, 10]: >3 log | residual cell count [9, 10]: <100 cfu/ml | log reduction [9, 11]: >3 log | residual cell count [9, 11]: <100 cfu/ml | log reduction [9, 12]: >3 log | residual cell count [9, 12]: <100 cfu/ml | log reduction [9, 13]: >3 log | residual cell count [9, 13]: <100 cfu/ml

CCCCCCCCCCCC(=O)Nc1ccc(O)c(C(=O)O)c1 [compound 597]
log reduction ([2]; contact time 24 h): >5 log | residual cell count ([2]; contact time 24 h): 1.6 × 10^3 cfu/ml

O=C(O)c1cc(NC(=O)C2CCCCC2)ccc1O [compound 601, 5-cyclohexanoylamino-salicylic acid]
log reduction ([1]; contact time 24 h): 4.8 log | residual cell count ([1]; contact time 24 h): 6.1 × 10^2 cfu/ml | log reduction ([2]; contact time 24 h): >5 log | residual cell count ([2]; contact time 24 h): <100 cfu/ml | log reduction ([3]; contact time 24 h): 4.3 log | residual cell count ([3]; contact time 24 h): 9.1 × 10^2 cfu/ml
